This is an account of results in ChEMBL document CHEMBL1135177 (Bioorg Med Chem Lett, 2002).

Assay type in all cases: cell-based
Test [1] deals with T1, Muscarinic acetylcholine receptor M1 (Homo sapiens, UniProt P11229).
T1 sequence (P11229 whole entry): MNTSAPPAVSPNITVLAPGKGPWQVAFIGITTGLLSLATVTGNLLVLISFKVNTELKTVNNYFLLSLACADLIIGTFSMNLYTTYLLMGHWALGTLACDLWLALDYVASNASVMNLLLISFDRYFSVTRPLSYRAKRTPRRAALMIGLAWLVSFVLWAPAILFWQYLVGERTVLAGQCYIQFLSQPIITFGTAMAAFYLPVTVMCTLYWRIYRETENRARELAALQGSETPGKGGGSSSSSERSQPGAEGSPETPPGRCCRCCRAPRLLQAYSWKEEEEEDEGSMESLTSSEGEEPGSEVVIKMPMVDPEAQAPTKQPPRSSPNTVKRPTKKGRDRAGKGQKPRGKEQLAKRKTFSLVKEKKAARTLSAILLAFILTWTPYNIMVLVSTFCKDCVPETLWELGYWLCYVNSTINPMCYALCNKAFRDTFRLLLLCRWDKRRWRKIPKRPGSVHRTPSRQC
The test can be described thus: Binding affinity against human muscarine receptor (hM1) cloned in CHO cells.

In test [2] the target is T2, Muscarinic acetylcholine receptor M2 (Homo sapiens, UniProt P08172).
T2 sequence (P08172 whole entry): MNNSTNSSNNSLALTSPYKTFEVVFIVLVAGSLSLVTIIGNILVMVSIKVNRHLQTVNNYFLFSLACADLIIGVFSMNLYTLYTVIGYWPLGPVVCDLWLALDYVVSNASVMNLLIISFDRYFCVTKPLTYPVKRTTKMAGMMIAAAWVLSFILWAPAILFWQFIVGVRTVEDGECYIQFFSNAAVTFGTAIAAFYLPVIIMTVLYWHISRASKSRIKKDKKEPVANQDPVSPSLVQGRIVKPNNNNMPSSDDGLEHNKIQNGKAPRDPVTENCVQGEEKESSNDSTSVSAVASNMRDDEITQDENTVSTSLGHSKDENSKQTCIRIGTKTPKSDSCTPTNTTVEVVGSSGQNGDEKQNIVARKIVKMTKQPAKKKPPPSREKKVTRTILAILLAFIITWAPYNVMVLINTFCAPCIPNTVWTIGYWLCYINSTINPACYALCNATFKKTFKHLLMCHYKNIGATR
The test can be described thus: Binding affinity against human muscarine receptor (hM2) cloned in CHO cells.

For test [3], the target named is Muscarinic acetylcholine receptor M3 (Homo sapiens, UniProt P20309). The test can be described thus: Binding affinity against human muscarine receptor (hM3) cloned in CHO cells.
In test [4] the target is T3, Muscarinic acetylcholine receptor M4 (Homo sapiens, UniProt P08173).
T3 sequence (P08173 whole entry): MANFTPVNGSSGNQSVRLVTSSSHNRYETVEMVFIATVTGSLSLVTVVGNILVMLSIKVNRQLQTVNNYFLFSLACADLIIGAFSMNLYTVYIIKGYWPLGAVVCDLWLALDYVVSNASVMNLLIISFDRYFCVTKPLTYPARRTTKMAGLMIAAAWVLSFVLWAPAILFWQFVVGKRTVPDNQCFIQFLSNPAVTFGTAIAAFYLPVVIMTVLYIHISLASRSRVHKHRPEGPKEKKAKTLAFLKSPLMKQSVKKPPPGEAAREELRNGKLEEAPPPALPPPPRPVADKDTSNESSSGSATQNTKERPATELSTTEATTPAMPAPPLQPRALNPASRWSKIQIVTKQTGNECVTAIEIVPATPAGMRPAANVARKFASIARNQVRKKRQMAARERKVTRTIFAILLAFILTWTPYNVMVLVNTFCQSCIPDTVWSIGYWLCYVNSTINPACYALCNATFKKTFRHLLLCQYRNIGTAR
The test can be described thus: Binding affinity against human muscarine receptor (hM4) cloned in CHO cells.

Chain of Muscarinic acetylcholine receptor M3 (P20309 whole entry): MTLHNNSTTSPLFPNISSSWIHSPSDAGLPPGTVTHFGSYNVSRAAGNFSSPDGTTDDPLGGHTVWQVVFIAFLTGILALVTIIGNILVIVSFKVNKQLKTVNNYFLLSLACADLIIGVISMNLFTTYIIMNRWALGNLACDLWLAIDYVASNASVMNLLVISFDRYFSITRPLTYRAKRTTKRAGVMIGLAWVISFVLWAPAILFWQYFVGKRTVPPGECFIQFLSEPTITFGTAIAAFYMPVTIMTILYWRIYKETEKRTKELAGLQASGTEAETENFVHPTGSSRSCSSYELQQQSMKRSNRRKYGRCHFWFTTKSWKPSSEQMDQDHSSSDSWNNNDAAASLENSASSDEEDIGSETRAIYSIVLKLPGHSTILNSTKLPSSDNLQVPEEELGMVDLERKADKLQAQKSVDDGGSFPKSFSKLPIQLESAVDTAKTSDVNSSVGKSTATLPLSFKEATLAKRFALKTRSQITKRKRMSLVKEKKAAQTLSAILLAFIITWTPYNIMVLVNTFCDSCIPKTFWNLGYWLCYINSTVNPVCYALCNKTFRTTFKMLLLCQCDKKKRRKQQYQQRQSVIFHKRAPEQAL

For `C[C@@H]1OC(=O)[C@H]2C[C@H]3CCCC[C@H]3[C@H](C#C[C@H]3CCC[C@H](C)N3C)[C@@H]12`, the Ki in test [1] was 5370 nM; in test [2] it was 1150 nM; in test [3], 5010 nM; in test [4], 1740 nM.
Turning to `C[C@@H]1OC(=O)[C@H]2C[C@H]3CCCC[C@@H]3[C@@H](C#C[C@H]3CCC[C@H](C)N3C)[C@@H]12`, the Ki is 3240 nM in test [1], 309 nM in test [2], 3310 nM in test [3] and 891 nM in test [4].
Regarding `C[C@@H]1OC(=O)[C@@H]2C[C@@H]3CCCC[C@@H]3[C@@H](/C=C/[C@H]3CCC[C@H](C)N3C)[C@H]12`, the figures for the Ki in test [1] and in test [2] were 427 nM and 95.5 nM, respectively.
For the compound `C[C@@H]1OC(=O)[C@@H]2C[C@@H]3CCCC[C@@H]3[C@@H](C#C[C@H]3CCC[C@H](C)N3C)[C@H]12`, the Ki in test [1] was 3240 nM; in test [2] it was 1170 nM; in test [3], 11000 nM; in test [4], 1950 nM.
On to `C[C@@H]1OC(=O)[C@H]2C[C@H]3CCCC[C@@H]3[C@@H](/C=C\[C@H]3CCC[C@H](C)N3C)[C@@H]12`, for which the values for the Ki in test [1] and in test [2] were 1510 nM and 1740 nM, respectively.
In the same order, the values of `C[C@@H]1OC(=O)[C@@H]2C[C@@H]3CCCC[C@@H]3[C@@H](/C=C\[C@H]3CCC[C@H](C)N3C)[C@H]12` are 2340 nM and 676 nM.
For `C[C@@H]1OC(=O)[C@H]2C[C@H]3CCCC[C@H]3[C@H](/C=C/[C@H]3CCC[C@H](C)N3C)[C@@H]12`, the Ki in test [1] was 1740 nM; in test [2], 170 nM.
As for `C[C@@H]1OC(=O)[C@H]2C[C@H]3CCCC[C@H]3[C@H](/C=C\[C@H]3CCC[C@H](C)N3C)[C@@H]12`, the Ki was 2570 nM in test [1] and 851 nM in test [2].
In the same order, the values of `C[C@@H]1OC(=O)[C@H]2C[C@H]3CCCC[C@@H]3[C@@H](/C=C/[C@H]3CCC[C@H](C)N3C)[C@@H]12` [HIMBACINE] are 158 nM and 4.68 nM.

For orientation: Ki means a measure of affinity in units of concentration, obtained from inhibition or displacement.
